Assays:
[1] = test system: primary dopaminergic neurons; assay: MPP+ exposure in dopaminergic neurons; type: cell-based, rat; conditions: 10 μM MPP+ 60 minutes, control 100, MPP+ alone 56.6
Protocol: Primary dopaminergic neurons were isolated from E15 rat embryos as described in Pong K., et al., (1997) J. Neurochem. 69 986-994. Briefly, the ventral mesencephalon was isolated and tissue was pooled in ice-cold phosphate buffer saline (PBS) without Ca^2+ and Mg^2+. The tissue was transferred to an enzymatic dissociation media containing 20 IU/ml papain in Earle's balanced salt solution (Worthington Biochemical, Freehold, N.J.) and incubated for 30 minutes at 37° C. After enzymatic dissociation, the papain solution was aspirated and the tissue mechanically triturated with a fire-polished Pasteur pipette in complete media [Neurobasal Medium with B-27 supplement (Gibco, Grand Island, N.Y.), penicillin/streptomycin, aphidicolin, glutamate] containing 2,000 IU/ml DNase and 10 mg/ml ovomucoid protease inhibitor. Single-cell suspensions in complete media were plated on pre-coated poly-L-ornithine/laminin 24-well plates (Becton-Dickinson, Bedford, Mass.) at a density of 5.0×10^5 cells/well. Cells were maintained for one week prior to experimentation.
Cultures were exposed to 10 μM MPP^+ for 60 minutes. After the exposure, fresh media was exchanged and fresh compound was added. Dopaminergic neuron viability was determined 24 hours later by measuring ^3H-dopamine uptake as described in Pong et al., 1997, supra.

cPLA2α = molecular target: T1, cPLA2α (Homo sapiens, UniProt P47712); assay: GLU Micelle Assay; type: biochemical
T1 sequence (P47712 1-749): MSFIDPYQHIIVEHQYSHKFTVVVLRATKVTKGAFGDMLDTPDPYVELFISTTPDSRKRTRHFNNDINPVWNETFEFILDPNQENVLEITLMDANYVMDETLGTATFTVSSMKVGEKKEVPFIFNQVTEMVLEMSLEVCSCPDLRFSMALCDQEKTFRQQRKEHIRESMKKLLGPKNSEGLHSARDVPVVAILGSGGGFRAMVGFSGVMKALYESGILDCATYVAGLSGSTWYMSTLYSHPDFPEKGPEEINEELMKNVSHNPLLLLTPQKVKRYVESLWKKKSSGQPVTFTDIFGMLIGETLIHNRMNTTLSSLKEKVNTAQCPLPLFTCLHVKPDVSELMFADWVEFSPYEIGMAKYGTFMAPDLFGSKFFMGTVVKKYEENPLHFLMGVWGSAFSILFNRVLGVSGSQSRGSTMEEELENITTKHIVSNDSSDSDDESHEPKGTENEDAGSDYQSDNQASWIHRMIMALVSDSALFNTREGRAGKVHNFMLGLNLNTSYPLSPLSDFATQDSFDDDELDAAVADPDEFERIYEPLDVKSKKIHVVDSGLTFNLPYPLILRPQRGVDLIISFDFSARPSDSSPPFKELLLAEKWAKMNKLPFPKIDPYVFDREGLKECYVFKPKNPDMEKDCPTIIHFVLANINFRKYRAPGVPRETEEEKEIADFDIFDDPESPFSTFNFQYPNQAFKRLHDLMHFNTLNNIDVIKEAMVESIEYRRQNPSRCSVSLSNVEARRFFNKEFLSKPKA
How it was run: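 Fluorogenic micelle assay with 1 μg/ml cPLA2α and 90 μM GLU substrate plus 120 μM DTPC in 940 μM Triton X-100, 50 mM Hepes pH 7.4, 0.3 mM EDTA, 1 mM CaCl2, 300 mM KCl. Fluorescence (ex 355/em 460) was read every 4 min for 84 min. Percent inhibition came from slopes relative to positive and negative controls.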

## Cc1cccc(C)c1CS(=O)(=O)NCCc1c(CCCc2ccc(C(=O)O)cc2)c2cc(Cl)ccc2n1C(c1ccccc1)c1ccccc1 [Compound A, 4-{3-[1-benzhydryl-5-chloro-2-(2-{[(2,6-dimethylbenzyl)sulfonyl]amino}ethyl)-1H-indol-3-yl]propyl}benzoic acid]
[1]; 0.3 μM
  dopaminergic neuron viability (3H-dopamine uptake), Avg.: 76.9
[1]; 1 μM
  dopaminergic neuron viability (3H-dopamine uptake), Avg.: 83.4
[1]; 3 μM
  dopaminergic neuron viability (3H-dopamine uptake), Avg.: 78.8
[1]; 10 μM
  dopaminergic neuron viability (3H-dopamine uptake), Avg.: 81.1

## O=C(O)c1ccc(CCCc2c(CCNS(=O)(=O)Cc3ccccc3C(F)(F)F)n(C(c3ccccc3)c3ccccc3)c3ccc(Cl)cc23)cc1 [Example 10, 4-(3-{5-chloro-1-(diphenylmethyl)-2-[2-({[2-(trifluoromethyl)benzyl]sulfonyl}amino)ethyl]-1H-indol-3-yl}propyl)benzoic acid]
cPLA2α
  IC50: 9 nM

— patent publication US8283373B2, “Inhibitors of cytosolic phospholipase A2” (Pfizer Inc., priority 2005, dated 2012)
